Assay results from patent US20210078988A1, “MODULATORS OF INDOLEAMINE 2,3-DIOXYGENASE” (GLAXOSMITHKLINE INTELLECTUAL PROPERTY DEVELOPMENT LIMITED, priority 2017, published 2021).

Target: T1, indoleamine 2, 3-dioxygenase (IDO1) (Homo sapiens, UniProt P14902)
T1 construct: human peripheral blood mononuclear cells (PBMC) (PB003F; host or cells: human PBMC stimulated with IFN-gamma and LPS
Test: PBMC IDO1 assay (kynurenine detection via mass spectrometry)
Type: cell-based
Details: human PBMC stimulated with IFN-γ and LPS, 2 days, kynurenine by mass spectrometry; read-out: IDO1 PBMC pIC50 (converted)
Summary of the method: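 Kynurenine output, read by RapidFire mass spectrometry as a ratio to internal standard, reflected IDO1 activity in human PBMCs induced with 100 ng/ml IFN-γ plus 50 ng/ml LPS and dosed with compound (11 points, 3-fold) over 2 days. Cytotoxicity was tracked by CellTiter-Glo; XC50 values came from Hill-slope fits.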

T1 sequence (P14902 whole entry): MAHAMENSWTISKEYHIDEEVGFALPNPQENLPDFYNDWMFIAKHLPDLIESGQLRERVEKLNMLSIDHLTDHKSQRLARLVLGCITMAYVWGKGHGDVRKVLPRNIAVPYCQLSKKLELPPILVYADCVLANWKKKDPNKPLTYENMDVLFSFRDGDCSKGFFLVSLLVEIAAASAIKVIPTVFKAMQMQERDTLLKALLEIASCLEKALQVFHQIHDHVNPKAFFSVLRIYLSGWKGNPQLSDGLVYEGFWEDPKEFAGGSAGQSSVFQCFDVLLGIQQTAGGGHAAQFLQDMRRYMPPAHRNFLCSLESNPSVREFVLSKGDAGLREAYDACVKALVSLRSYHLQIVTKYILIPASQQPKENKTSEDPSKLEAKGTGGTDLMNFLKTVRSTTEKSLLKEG

IC50	Compound
631 nM	CC(C)(C)OC(=O)N1CCC(CC(NC(=O)c2ccc(F)cc2)c2ccccn2)CC1 (stereo not shown) [Example 226, tert-butyl 4-(2-(4-fluorobenzamido)-2-(pyridin-2-yl)ethyl)piperidine-1-carboxylate]
631 nM	CC(C)Cc1ccc(C(=O)NC(CC2CCN(C(=O)OC(C)(C)C)CC2)c2ccccc2)s1 (stereo not shown) [Example 227, tert-butyl 4-(2-(5-isobutylthiophene-2-carboxamido)-2-phenylethyl)piperidine-1-carboxylate]
631 nM	CC(C)(C)OC(=O)N1CCC(CC(NC(=O)c2ccco2)c2ccccc2)CC1 (stereo not shown) [Example 228, tert-butyl 4-(2-(furan-2-carboxamido)-2-phenylethyl)piperidine-1-carboxylate]
631 nM	CC(C)(C)OC(=O)N1CCC(C[C@H](Nc2ccnc(Cl)n2)C2CC2)CC1 [Example 229, (S)-tert-butyl 4-(2-((2-chloropyrimidin-4-yl)amino)-2-cyclopropylethyl)piperidine-1-carboxylate]
631 nM	O=C(NC(CC1CCN(C(=O)N2CCCCC2)CC1)c1ccccc1)c1ccc(Cl)cc1 (stereo not shown) [Example 230, 4-chloro-N-(1-phenyl-2-(1-(piperidine-1-carbonyl)piperidin-4-yl)ethyl)benzamide]
631 nM	CCNCC[C@H](CC1CCN(C(=O)OC(C)(C)C)CC1)NC(=O)c1ccc(Cl)s1 [Example 231, (S)-tert-butyl 4-(2-(5-chlorothiophene-2-carboxamido)-4-(ethylamino)butyl)piperidine-1-carboxylate]
794 nM	CC(C)(C)OC(=O)N1CCC(CC(NC(=O)C2CCCC2)c2ccccc2)CC1 (stereo not shown) [Example 232, tert-butyl 4-(2-(cyclopentanecarboxamido)-2-phenylethyl)piperidine-1-carboxylate]
794 nM	CC1CCC(C(=O)NC(CC2CCN(C(=O)OC(C)(C)C)CC2)c2ccccc2)CC1 (stereo not shown) [Example 233, tert-butyl 4-(2-(4-methylcyclohexanecarboxamido)-2-phenylethyl)piperidine-1-carboxylate]
794 nM	CC(C)(C)OC(=O)N1CCC(C[C@@H](NC(=O)c2ccc(Cl)cc2)c2ccccc2)CC1 [Example 234, (R)-tert-butyl 4-(2-(4-chlorobenzamido)-2-phenylethyl)piperidine-1-carboxylate]
794 nM	COCCNCC(CC1CCN(C(=O)OC(C)(C)C)CC1)NC(=O)c1ccc(F)cc1 (stereo not shown) [Example 235, tert-butyl 4-(2-(4-fluorobenzamido)-3-((2-methoxyethyl)amino)propyl)piperidine-1-carboxylate]
